Test [1] relates to MDA-MB231 breast cancer cell line. Put plainly: MTT cell viability assay (IC50). Type of test: cell-based. The note with it: Homo sapiens, MDA-MB-231; MDA-MB231 cells, single dose of treatment, 10^−9 to 10^−4 M, 570 nm absorbance, FIG. 1; read-out: IC50 (half-maximal inhibitory concentration). How it is done:
HCT 116 colon cancer and MDA-MB231 breast cancer cell lines are used in cell culture experiments.
Cells were treated with high-glucose DMEM medium (Biosera) supplemented with 10% FBS (Gibco) and 1× penicillin/streptomycin (Multicell). The assay was designed to contain 10,000 cells for each well of 24-well cell culture plates before being treated with inhibitors.
Compound of formula I was dissolved with DMSO as 20 mM stock. 24 hours later, the solution was diluted in DMEM with 10% FBS and final concentration of vehicle DMSO was 0.5% at maximum. Therefore, the vehicle group included 0.5% DMSO concentration in experiments. Intensive cultivation of cells causes a decrease in proliferation capacity.
The MTT cell viability assay was used to detect values of half-maximal inhibitory concentration (IC50). Different concentrations of compound of formula I ranging between 10^−9 to 10^−4 M were tested on MDA-MB231 cell lines with single dose of treatment. 570 nm absorbance values were recorded and IC50 values were calculated by dose response-inhibition curves and nonlinear regression analysis on Graphpad Prism 8 software. IC50 value of compound of formula I was determined to be […] (FIG. 1).

The target in test [2] is MDM2 protein (Homo sapiens, UniProt Q00987). Conditions: state of the art statement; cited from earlier work.
MDM2 protein, sequence (Q00987 whole entry, species assumed): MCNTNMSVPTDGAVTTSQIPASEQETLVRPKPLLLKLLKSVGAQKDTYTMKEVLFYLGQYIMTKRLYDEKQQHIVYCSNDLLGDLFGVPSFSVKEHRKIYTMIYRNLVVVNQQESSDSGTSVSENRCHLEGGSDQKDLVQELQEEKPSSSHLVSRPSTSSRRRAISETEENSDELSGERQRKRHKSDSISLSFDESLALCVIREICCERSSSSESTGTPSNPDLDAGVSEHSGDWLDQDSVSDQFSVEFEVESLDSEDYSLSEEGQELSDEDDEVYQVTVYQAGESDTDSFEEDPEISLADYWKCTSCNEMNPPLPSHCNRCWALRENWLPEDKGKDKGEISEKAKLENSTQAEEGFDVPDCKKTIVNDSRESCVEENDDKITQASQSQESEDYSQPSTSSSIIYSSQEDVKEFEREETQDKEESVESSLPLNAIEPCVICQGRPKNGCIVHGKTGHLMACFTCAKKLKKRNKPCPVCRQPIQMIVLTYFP

pIC50: −log10 of the molar value.

As for `O=C(CCCc1nc2ccccc2c(=O)[nH]1)NC(Cc1c[nH]c2ccccc12)C(=O)O` (centres unmarked) [compound of formula I], the pIC50 in test [1] was 4.89.

For the molecule MI-319, in test [2], the “binding affinity to MDM2 relative to a natural p53 peptide” value is reported as 500 fold.

Values taken from US12502392B2, “DRG-MDM2-6 for use as a novel mouse double minute 2 (MDM2) inhibitor” (BAHCESEHIR UNIVERSITESI, priority 2021, dated 2025).
